From patent US20250026757A1, “Bicyclic Compounds for the Control of Invertebrate Pests” (BASF SE, priority 2021, published 2025)

Experiments:
Assay type in all cases: in vivo
Myzus persicae = assay: Green peach aphid (Myzus persicae) systemic test, artificial diet in 96-well microtiter plates; settings: 72 h, adult aphids on treated diet, 3 days, read-out: mortality in comparison with untreated controls
From the text: B.1 Green Peach Aphid (Myzus persicae)
For evaluating control of green peach aphid (Myzus persicae) through systemic means, the test unit consisted of 96-well-microtiter plates containing liquid artificial diet under an artificial membrane.
The compounds were formulated using a solution containing 75% v/v water and 25% v/v DMSO. Different concentrations of formulated compounds were pipetted into the aphid diet, using a custom built pipetter, at two replications.
After application, 5-8 adult aphids were placed on the artificial membrane inside the microtiter plate wells. The aphids were then allowed to suck on the treated aphid diet and incubated at about 23±1° C. and about 50±5% relative humidity for 3 days. Aphid mortality and fecundity was then visually assessed.

Heliothis virescens = assay: Tobacco budworm (Heliothis virescens) test, eggs on insect diet in 96-well microtiter plates; settings: 120 h, egg and larval mortality, 5 days, read-out: mortality in comparison with untreated controls
Method: B.2 Tobacco Budworm (Heliothis virescens)
For evaluating control of tobacco budworm (Heliothis virescens), the test unit consisted of 96-well-microtiter plates containing an insect diet and 15-25 H. virescens eggs.
The compounds were formulated using a solution containing 75% v/v water and 25% v/v DMSO. Different concentrations of formulated compounds were sprayed onto the insect diet at 10 μl, using a custom-built micro atomizer, at two replications.
After application, microtiter plates were incubated at about 28±1° C. and about 80±5% relative humidity for 5 days. Egg and larval mortality was then visually assessed.

Anthonomus grandis = assay: Boll weevil (Anthonomus grandis) test, eggs on insect diet in 96-well microtiter plates; settings: 120 h, egg and larval mortality, 5 days, read-out: mortality in comparison with untreated controls
Method: B.3 Boll Weevil (Anthonomus grandis)
For evaluating control of boll weevil (Anthonomus grandis), the test unit consisted of 96-well-microtiter plates containing an insect diet and 5-10 A. grandis eggs.
The compounds were formulated using a solution containing 75% v/v water and 25% v/v DMSO. Different concentrations of formulated compounds were sprayed onto the insect diet at 5 μl, using a custom-built micro atomizer, at two replications.
After application, microtiter plates were incubated at about 25±1° C. and about 75±5% relative humidity for 5 days. Egg and larval mortality was then visually assessed.

Aedes aegypti = assay: whole plant or invertebrate; settings: 48 h, larval mortality, 2 days, read-out: mortality in comparison with untreated controls
Method: B.5 Yellow Fever Mosquito (Aedes aegypti)
For evaluating control of yellow fever mosquito (Aedes aegypti) the test unit consisted of 96-well-microtiter plates containing 200 μl of tap water per well and 5-15 freshly hatched A. aegypti larvae.
The active compounds were formulated using a solution containing 75% (v/v) water and 25% (v/v) DMSO. Different concentrations of formulated compounds or mixtures were sprayed onto the insect diet at 2.5 μl, using a custom-built micro atomizer, at two replications.
After application, microtiter plates were incubated at 28±1° C., 80±5% RH for 2 days. Larval mortality was then visually assessed.

Spodoptera eridania = assay: Southern armyworm (Spodoptera eridania), 2nd instar larvae, foliar spray on lima bean plants; settings: 96 h, 2nd instar larvae on sprayed lima bean, 4 days after treatment, read-out: mortality in comparison with untreated controls
Method: B.4. Southern Armyworm (Spodoptera eridania), 2nd Instar Larvae
The active compounds were formulated by a Tecan liquid handler in 100% cyclohexanone as a 10,000-ppm solution supplied in tubes. The 10,000-ppm solution was serially diluted in 100% cyclohexanone to make interim solutions. These served as stock solutions for which final dilutions were made by the Tecan in 50% acetone:50% water (v/v) into 10 or 20 ml glass vials. A non-ionic surfactant (Kinetic®) was included in the solution at a volume of 0.01% (v/v). The vials were then inserted into an automated electrostatic sprayer equipped with an atomizing nozzle for application to plants/insects. Lima bean plants (variety Sieva) were grown 2 plants to a pot and selected for treatment at the 1st true leaf stage. Test solutions were sprayed onto the foliage by an automated electrostatic plant sprayer equipped with an atomizing spray nozzle. The plants were dried in the sprayer fume hood and then removed from the sprayer. Each pot was placed into perforated plastic bags with a zip closure. Ten to 11 armyworm larvae were placed into the bag and the bags zipped closed. Test plants were maintained in a growth room at about 25° C. and about 20-40% relative humidity for 4 days, avoiding direct exposure to fluorescent light (14:10 light:dark photoperiod) to prevent trapping of heat inside the bags. Mortality and reduced feeding were assessed 4 days after treatment, compared to untreated control plants.

CCS(=O)(=O)c1cc(Br)cnc1-c1cc(=O)n2c(cc(C(F)(F)F)n2C)n1 [Compound I-1, 5-(5-bromo-3-ethylsulfonyl-2-pyridyl)-1-methyl-2-(trifluoromethyl)pyrazolo[1,5-a]pyrimidin-7-one]
≥ 75%: mortality at 2500 ppm (Myzus persicae) | mortality at 2500 ppm (Heliothis virescens) | mortality at 2500 ppm (Anthonomus grandis) | mortality at 2500 ppm (Aedes aegypti)

CCS(=O)(=O)c1cc(N=S(C)(C)=O)cnc1-c1cc(=O)n2c(cc(C(F)(F)F)n2C)n1 [Compound I-2, 5-[5-[[dimethyl(oxo)-λ6-sulfanylidene]amino]-3-ethylsulfonyl-2-pyridyl]-1-methyl-2-(trifluoromethyl)pyrazolo[1,5-a]pyrimidin-7-one]
≥ 75%: mortality at 2500 ppm (Myzus persicae) | mortality at 2500 ppm (Anthonomus grandis) | mortality at 2500 ppm (Aedes aegypti)

CCS(=O)(=O)c1cc(-c2ccc(F)cc2)cnc1-c1cc(=O)n2c(cc(C(F)(F)F)n2C)n1 [Compound I-3, 5-[3-ethylsulfonyl-5-(4-fluorophenyl)-2-pyridyl]-1-methyl-2-(trifluoro-methyl)pyrazolo[1,5-a]pyrimidin-7-one]
≥ 75%: mortality at 2500 ppm (Myzus persicae) | mortality at 2500 ppm (Heliothis virescens) | mortality at 2500 ppm (Anthonomus grandis) | mortality at 300 ppm (Spodoptera eridania) | mortality at 2500 ppm (Aedes aegypti)

CCS(=O)(=O)c1cc(-c2ccc(OC(F)F)cc2)cnc1-c1cc(=O)n2c(cc(C(F)(F)F)n2C)n1 [Compound I-4, 5-[5-[4-(difluoromethoxy)phenyl]-3-ethylsulfonyl-2-pyridyl]-1-methyl-2-(trifluoromethyl)pyrazolo[1,5-a]pyrimidin-7-one]
≥ 75%: mortality at 2500 ppm (Myzus persicae) | mortality at 2500 ppm (Heliothis virescens) | mortality at 2500 ppm (Anthonomus grandis) | mortality at 300 ppm (Spodoptera eridania) | mortality at 2500 ppm (Aedes aegypti)

CCS(=O)(=O)c1cc(Br)ccc1-c1cc(=O)n2c(cc(C(F)(F)F)n2C)n1 [Compound I-7, 5-(4-bromo-2-ethylsulfonyl-phenyl)-1-methyl-2-(trifluoromethyl)pyrazolo[1,5-a]pyrimidin-7-one]
≥ 75%: mortality at 2500 ppm (Myzus persicae) | mortality at 300 ppm (Spodoptera eridania) | mortality at 2500 ppm (Aedes aegypti)

CCS(=O)(=O)c1cc(Br)cnc1-c1nc2cc(C(F)(F)F)n(C)n2c(=O)c1C [Compound I-16, 5-(5-bromo-3-ethylsulfonyl-2-pyridyl)-1,6-dimethyl-2-(trifluoromethyl)pyrazolo[1,5-a]pyrimidin-7-one]
≥ 75%: mortality at 2500 ppm (Myzus persicae) | mortality at 2500 ppm (Anthonomus grandis)
